{"source": "patent US20090282496A1", "about": "“Androgen Receptor Related Methods for Treating Bladder Cancer” (University of Rochester Medical Center, priority 2008, published 2009)", "key": {"[1]": {"system": "TCC-SUP cells", "experiment": "Cell proliferation assay (MTT), TCC-SUP", "assay_type": "cell-based, human", "conditions": "6 days"}, "[2]": {"system": "TCC-SUP xenograft tumors", "experiment": "TCC-SUP mouse xenograft, tumor progression study", "assay_type": "in vivo, male athymic nude mouse", "excerpt": "Total RNA from mouse bladder and xenograft tumor tissues and cultured cells was extracted by the acid guanidinium-phenol-chloroform method as previously described (Miyamoto et al., Cancer, 75:2565-70 (1995)) or by using Trizol reagent (Life Science). Isolated RNAs were reverse transcribed to cDNA using random hexamers as described (Miyamoto et al., Cancer, 75:2565-70 (1995) and Miyoshi et al., Prostate, 56:280-6 (2003)), and amplified by PCR using a primer set specific for the AR gene (Miyoshi et al., Prostate, 56:280-6 (2003)). Using the iCycler (Bio-Rad) and the methods previously described by Miyoshi et al., Prostate, 56:280-6 (2003), real-time quantitative PCR analysis of AR, basic fibroblast growth factor (bFGF), vascular endothelial growth factor (VEGF), and matrix metalloproteinase-9 (MMP-9) was performed on the tissue samples from mouse xenograft tumors. The following PCR primers were designed using Beacon Designer 2 (Premier Biosoft): bFGF: 5′-[…]-3′ (SEQ ID NO. 1) and 5′-[…]-3′ (SEQ ID NO. 2), VEGF: 5′-[…]-3′ (SEQ ID NO. 3) and 5′-[…]-3′ (SEQ ID NO. 4), and MMP-9: 5′-[…]-3′ (SEQ ID NO. 5) and 5′-[…]-3′ (SEQ ID NO. 6). β-actin was used as an internal control.\n(§1) Bladder cancer cell lines (TCC-SUP, UMUC3, and 5637) were harvested, washed twice with PBS, and resuspended in Matrigel (BD Bioscience) at a final concentration of 1×10^7 cells/mL. Cells (1×10^6 cells in 100 μl per site) were then injected subcutaneously into the right and left flanks of 6-week-old male athymic nude mouse. Treatment (castration or sham surgery, flutamide [0.5 mg/mouse] or placebo pellet injection, and the recently developed anti-AR molecule ASC-J9 (50 mg/Kg or DMSO injection) (Ohtsu et al., J. Med. Chem., 45:5037-42 (2002)) was initiated either (1) at the same time as tumor cell injection (for tumor incidence studies, n=8 mice in each group) or (2) when the sizes of all tumors reached 40 mm^3 (for tumor progression studies, n=12 tumors from 6 mice in each group). Hormonal pellets were replaced as required (every 90 days). Tumor weight was calculated by the following formula: tumor weight (mg)=tumor length (mm)×[tumor width (mm)]^2×0.5 (Geram et al., Cancer Chemother. Rep., 3:47-52 (1972)). Using calipers, each tumor was measured twice a week until either the tumor size reached 40 mm^3 (for tumor incidence study) (Chen et al., Nat. Med., 10:33-9 (2004)), or until the tumor exceeded 10% of the animal's body weight, at which time the mouse was killed (for tumor progression study)."}, "[3]": {"system": "TCC-SUP and UMUC3 stable sublines (control-siRNA, AR-siRNA)", "experiment": "Tumor incidence (tumorigenicity) study of control-siRNA and AR-siRNA sublines in nude mice", "assay_type": "in vivo, male athymic nude mouse", "conditions": "vs. control-siRNA cells with control treatment; treatment from tumor cell implantation; tumor positive at 40 mm3", "excerpt": "The reporter plasmids [mouse mammary tumor virus (MMTV)-luciferase (Luc) and (ARE)4-Luc (provided by Dr. Michael L. Lu at Harvard Medical School)] as well as a retrovirus vector pMSCV/U6 (Clontech)-AR-siRNA were described in previous studies (Miyamoto et al., Int. J. Cancer, 117:866-72 (2005) and Yeh et al., J. Exp. Med. 198:1899-908 (2003)). Using SuperFect reagent (Qiagen), stable cell lines expressing the AR-siRNA were established by transfecting pMSCV/U6-AR-siRNA into Phi-NX packaging retrovirus producer cells (developed by the Nolan Lab at Stanford University). The target cells (i.e., TCC-SUP, UMUC3, and 5637) were then cultured in the presence of the viral supernatant, and infected cells were selected with puromycin (Sigma).\nas §1"}, "[4]": {"system": "UMUC3 cells", "experiment": "Cell proliferation assay (MTT), UMUC3", "assay_type": "cell-based, human", "conditions": "6 days"}, "[5]": {"system": "BBN-induced bladder tumors", "experiment": "BBN-induced mouse bladder cancer model (tumor incidence; PCNA and TUNEL indexes of tumors)", "conditions": "for Carcinoma, No. (%) / Preneoplastic lesions, No. (%): 0.05% BBN", "protocol": "Animal care was provided in accordance with institutional guidelines. Five to six weeks old ARKO mice (male: n=48; female: n=24) and their wild-type littermates (male: n=48; female: n=24) were supplied ad libitum with tap water containing 0.05% BBN (TCI America) in opaque bottles for 12 weeks, and thereafter with tap water without BBN. To estimate BBN intake, the drinking water was prepared fresh twice a week, and consumption was recorded. […] Before starting BBN treatment, wild-type male mice received surgical castration (n=24) or sham surgery (n=24) at 5 weeks of age. […] Every 90 days, these pellets were replaced. At 20 (n=4 in each group), 30 (n=8 in each group), or 40 (n=12 in each group) weeks of age, the mice were killed by administration of pentobarbital followed by rapid cervical dislocation. Urinary tract specimens were harvested. These specimens were preserved in phosphate-buffered 10% formalin, embedded in paraffin, sectioned, stained with hematoxylin and eosin, and examined microscopically to identify carcinoma or other pathological changes. Paraffin-embedded sections were also used for immunohistochemical analysis. Part of each specimen was rapidly frozen in liquid nitrogen and stored at −80° C. for subsequent RNA analysis.\nSections (5-7 μm thick) from paraffin-embedded mouse urinary tract tissue and xenograft tumors (see below) were deparaffinized in xylene and rehydrated in a graded ethanol series. Sections were then incubated in 3% hydrogen peroxide to block endogenous peroxidase, with a protein blocking solution containing preimmune rabbit serum, and finally with a 1:500 dilution of primary antibody (rabbit polyclonal anti-proliferating cell nuclear antigen (PCNA) (Santa Cruz). Samples were incubated with peroxidase-conjugated anti-rabbit IgG. The slides were rinsed with PBS, incubated with diaminobenzidine, and finally counterstained with hematoxylin. The TUNEL assay was performed on additional rehydrated sections from paraffin-embedded mouse urinary tract tissue and xenograft tumor using the Fluorescein-FragEL DNA Fragmentation Detection kit (Calbiochem), according to the manufacturer's instructions, followed by counterstaining for DNA with DAPI. The percentage of apoptotic cells was determined by fluorescence microscopy. The percentage of PCNA- and TUNEL-positive cells in 1000 cells counted on each specimen were used to determine the amount of cell proliferation and apoptotic indices, respectively."}, "[6]": {"system": "AR-negative bladder cancer cell lines (5637)", "experiment": "Cell proliferation assay (MTT), AR-negative bladder cancer cell lines", "assay_type": "cell-based, human", "conditions": "AR-negative 5637 subline that expresses AR-siRNA, 6 days"}, "[7]": {"conditions": "harvested TCC-SUP tumors, ASC-J9 50 mg/Kg"}, "[8]": {"conditions": "ARKO male mice + DHT pellet 1.5 mg/mouse/90 days, age 20 weeks"}, "[9]": {"conditions": "ARKO male mice + DHT pellet, age 30 weeks"}, "[10]": {"conditions": "ARKO male mice + DHT pellet, age 40 weeks"}, "[11]": {"conditions": "male ARKO mice treated with BBN and DHT, 40 weeks"}}, "note": "Marks after values point to notes of the source that are not given here."}
{"smiles": "COc1ccc(C=CC(=O)C=C(O)C=Cc2ccc(OC)c(OC)c2)cc1OC", "note": "[ASC-J9, 5-hydroxy-1,7-bis(3,4-dimethoxyphenyl)-1,4,6-heptatrien-3-one]", "values": [{"measurement": "effect on DHT-simulated growth", "setting": "[1]; TCC-SUP, 1 μM ASC-J9 + 1 nM DHT", "result": "inhibited"}, {"measurement": "reduction in tumor size", "setting": "[2]; ASC-J9 50 mg/Kg intraperitoneal every other day, over 16 weeks of treatment", "result": 58, "unit": "%"}, {"measurement": "apoptotic index of harvested tumors", "setting": "[2]; [7]", "result": "increased"}, {"measurement": "proliferation index of harvested tumors", "setting": "[2]; [7]", "result": "decreased"}, {"measurement": "levels of angiogenic factors and metastasis-related factors (bFGF, VEGF, MMP-9) in tumors", "setting": "[2]; harvested TCC-SUP tumors, real-time RT-PCR", "result": "reduced"}, {"measurement": "reduction of AR expression in tumors", "setting": "[2]; harvested TCC-SUP tumors, real-time RT-PCR, ASC-J9 50 mg/Kg", "result": 39, "unit": "%"}, {"measurement": "latency of tumor formation", "setting": "[3]", "result": "substantially prolonged"}, {"measurement": "effect on DHT-simulated growth", "setting": "[4]; UMUC3, 1 μM ASC-J9 + 1 nM DHT", "result": "inhibited"}]}
{"smiles": "C[C@]12CCC(=O)C[C@@H]1CC[C@@H]1[C@@H]2CC[C@]2(C)[C@@H](O)CC[C@@H]12", "note": "[DHT, dihydrotestosterone]", "values": [{"measurement": "effect on growth", "setting": "[1]; TCC-SUP subline that expresses AR-siRNA", "result": "did not affect the growth"}, {"measurement": "increase of cell growth", "setting": "[1]; TCC-SUP, 1 nM DHT, vs. ETOH", "result": 55, "unit": "%"}, {"measurement": "Carcinoma, No. (%)", "setting": "[5]; [8]", "result": "0 (0) No. (%)"}, {"measurement": "Preneoplastic lesions, No. (%)", "setting": "[5]; [8]", "result": "0 (0) No. (%)"}, {"measurement": "Carcinoma, No. (%)", "setting": "[5]; [9]", "result": "1 (0)∵ No. (%)"}, {"measurement": "Preneoplastic lesions, No. (%)", "setting": "[5]; [9]", "result": "3 (38) No. (%)"}, {"measurement": "Carcinoma, No. (%)", "setting": "[5]; [10]", "result": "3 (25)‡‡ No. (%)"}, {"measurement": "Preneoplastic lesions, No. (%)", "setting": "[5]; [10]", "result": "5 (42) No. (%)"}, {"measurement": "carcinoma incidence", "setting": "[5]; [11]", "result": 25, "unit": "%"}, {"measurement": "preneoplastic lesions incidence", "setting": "[5]; [11]", "result": 42, "unit": "%"}, {"measurement": "effect on growth", "setting": "[6]", "result": "did not affect the growth"}, {"measurement": "increase of cell growth", "setting": "[4]; UMUC3, 1 nM DHT, vs. ETOH", "result": 45, "unit": "%"}, {"measurement": "effect on growth", "setting": "[4]; UMUC3 subline that expresses AR-siRNA", "result": "did not affect the growth"}]}
